Assay [1] deals with Candida albicans ATCC 38247. The assay is described as follows: antifungal plate assay (MIC). The assay is classed as cell-based. Particulars: ATCC38247, plate disk assay. The method, then: (§1) The following represents the typical assay procedure used. Compound to be tested was placed on sterile dried 1/4" plate disks, and allowed to dry. Agar plates were seeded with fungi and allowed to solidify. The impregnated disks were placed on the seeded Agar surface and incubated for the time required for the particular culture. Results are expressed in MIC (μg/ml) to inhibit growth.

Assay [2] deals with Candida albicans ATCC 10231. The assay is described as follows: antifungal plate assay (MIC). In kind it is cell-based. The following applies: ATCC10231, plate disk assay. Here is the method: as §1
In assay [3] the test system is Candida albicans ATCC 38248. The assay is described as follows: antifungal plate assay (MIC). In kind it is cell-based. Particulars: ATCC38248, plate disk assay. Here is the method: as §1
The next assay deals with Candida albicans 3669. The assay is described as follows: antifungal plate assay (MIC). The assay is classed as cell-based. The following applies: strain 3669, plate disk assay. The method, then:
as §1

Assay [4] concerns Candida albicans ATCC 38246. The assay is described as follows: antifungal plate assay (MIC). In kind it is cell-based. The following applies: ATCC38246, plate disk assay. Here is the method:
as §1

Another assay relates to pinch skin graft. The assay is described as follows: survival time of pinch skin graft. In kind it is in vivo, mice (male DBA/2 donors, male BALB/c recipients). The method, then: (§2) Immunosuppressive activity was evaluated in an in vitro standard pharmacological test procedure to measure lymphocyte proliferation (LAF) and in two in vivo standard pharmacological test procedures. The first in vivo procedure was a popliteal lymph node (PLN) test procedure which measured the effect of compounds of this invention on a mixed lymphocyte reaction and the second in vivo procedure evaluated the survival time of a pinch skin graft.
The second in vivo test procedure is designed to determine the survival time of pinch skin graft from male DBA/2 donors transplanted to male BALB/c recipients. The method is adapted from Billingham R. E. and Medawar P. B., J. Exp. Biol. 28:385-402, (1951). Briefly, a pinch skin graft from the donor is grafted on the dorsum of the recipient as a homograft, and an autograft is used as control in the same region. […] Untreated recipients serve as rejection control. The graft is monitored daily and observations are recorded until the graft becomes dry and forms a blackened scab. This is considered as the rejection day. The mean graft survival time (number of days ±S.D.) of the drug treatment group is compared with the control group.

Assay [5] has as its system mixed lymphocyte reaction (popliteal lymph node). The assay is described as follows: in vivo popliteal lymph node (PLN) test procedure (mixed lymphocyte reaction). Also noted: species or system mice (irradiated BALB/c spleen cells into C3H recipients). The following applies: for PLN (ratio): Table 1, daily p.o. Day 0 to Day 4. Here is the method: as §2
A mixed lymphocyte reaction (MLR) occurs when lymphoid cells from genetically distinct animals are combined in tissue culture. Each stimulates the other to undergo blast transformation which results in increased DNA synthesis that can be quantified by the incorporation of tritiated thymidine. Since stimulating a MLR is a function of disparity at Major Histocompatibility antigens, an in vivo popliteal lymph node (PLN) test procedure closely correlates to host vs. graft disease. Briefly, irradiated spleen cells from BALB/c donors are injected into the right hind foot pad of recipient C3H mice. The drug is given daily, p.o. from Day 0 to Day 4. On Day 3 and Day 4, tritiated thymidine is given i.p., b.i.d. On Day 5, the hind popliteal lymph nodes are removed and dissolved, and radioactivity counted. The corresponding left PLN serves as the control for the PLN from the injected hind foot. Percent suppression is calculated using the non-drug treated animals as allogenic control. […] Results are expressed by the following ratio: [formula]

The next assay deals with transplant rejection. Particulars: cited from earlier work.
For a further assay, the system named is IgE-like antibodies. The following applies: in vivo; cited from earlier work.
Another assay relates to Candida albicans. Particulars: in vitro and in vivo; cited from earlier work.
The subject of another assay is adjuvant arthritis. The following applies: model for rheumatoid arthritis; cited from earlier work.
Assay [6] relates to experimental allergic encephalomyelitis. Particulars: model for multiple sclerosis; cited from earlier work.

≈ marks a conversion by molar mass, not a printed value.

In the case of `CO[C@H]1C[C@@H]2CC[C@@H](C)[C@@](O)(O2)C(=O)C(=O)N2CCCC[C@H]2C(=O)O[C@H]([C@H](C)C[C@@H]2CCC(=O)[C@H](OC)C2)CC(=O)[C@H](C)/C=C(\C)[C@@H](O)[C@@H](OC)C(=O)[C@H](C)C[C@H](C)/C=C/C=C/C=C/1C` [42-oxorapamycin], the minimum inhibitory concentration (MIC) was determined as 0.125 µg/mL (≈ 0.137 µM) in assay [1]; 0.006 µg/mL (≈ 0.00658 µM) in assay [2]; 0.025 µg/mL (≈ 0.0274 µM) in [3]; 0.05 µg/mL (≈ 0.0548 µM) against Candida albicans 3669; 0.05 µg/mL (≈ 0.0548 µM) in assay [4]. Besides, the “Skin Graft survival time (days + SD)” value in the assay with pinch skin graft (mean ± S.D., intraperitoneally) stood at 10.17 ± 0.41 days. The “survival time of the skin graft, in words” value in the assay on pinch skin graft (vs rejection within 6-7 days without immunosuppressive agent) is “increased survival time”. In [5] (interpretation of negative PLN ratio), the “PLN test result in words” value is “may cause T cell proliferation”. For the same compound, the “PLN (ratio)” value in assay [5] is -0.93.

Consider `CO[C@H]1C[C@@H]2CC[C@@H](C)[C@@](O)(O2)C(=O)C(=O)N2CCCC[C@H]2C(=O)O[C@H]([C@H](C)C[C@@H]2CC[C@@H](O)[C@H](OC)C2)CC(=O)[C@H](C)/C=C(\C)[C@@H](O)[C@@H](OC)C(=O)[C@H](C)C[C@H](C)/C=C/C=C/C=C/1C` [Rapamycin, rapamycin], for which the minimal inhibitory concentration (MIC) worked out at 0.003 µg/mL (≈ 0.00328 µM) in assay [1]; 0.003 µg/mL (≈ 0.00328 µM) in assay [2]; 0.006 µg/mL (≈ 0.00656 µM) in assay [3]; 0.025 µg/mL (≈ 0.0273 µM) against Candida albicans 3669; 0.025 µg/mL (≈ 0.0273 µM) in assay [4]. In the assay with transplant rejection, the “inhibition of transplant rejection” value is “effective in inhibiting transplant rejection”. Besides, in assay [5] (6 mg/kg, p.o., vs non-drug treated allogenic control), the “Percent suppression (PLN)” value turned out to be 86%. For the same compound, in assay [5], the “PLN (ratio)” value is listed as 1.0. The “inhibition of formation of IgE-like antibodies” value in the assay on IgE-like antibodies is reported as “effectively inhibited”. Further, the antifungal activity entry in the assay with Candida albicans is given as “antifungal activity”. Besides, the “effect in adjuvant arthritis model” value in the assay with adjuvant arthritis is given as “effective”. Also, the “effect in experimental allergic encephalomyelitis model” value in assay [6] is given as “effective”.

(Values after patent publication US5023263A, “42-oxorapamycin” (American Home Products Corporation, priority 1990, dated 1991).)
